# Experimental data taken from ChEMBL document CHEMBL4411303, “Synthesis of tetrazole derivatives bearing pyrrolidine scaffold and evaluation of their antifungal activity against Candida albicans” (Eur J Med Chem, 2019).
# Activity calls are given as the source filed them. The rule behind the calls is not given here.
# Key:
# [1] = tested on: Candida albicans; experiment: Fungicidal activity against Candida albicans ATCC 90028 assessed as log reduction in fungal load incubated for 48 hrs followed by replating on sabouraud dextrose agar plate and measured after 48 hrs; format: functional
# [2] = tested on: Candida albicans; experiment: Antifungal activity against Candida albicans ATCC 90028 assessed as planktonic growth inhibition at 0.32 uM after 48 hrs by M27-A3 protocol based method relative to control; format: functional; settings: ATCC 90028, 48 h, read-out: GI
# [3] = tested on: Candida albicans; experiment: Antifungal activity against Candida albicans ATCC 90028 assessed as planktonic growth inhibition at 1.3 uM after 48 hrs by M27-A3 protocol based method relative to control; format: functional; settings: ATCC 90028, 48 h, read-out: GI
# [4] = tested on: Candida albicans; experiment: Antifungal activity against Candida albicans ATCC 90028 assessed as planktonic growth inhibition at 0.08 uM after 48 hrs by M27-A3 protocol based method relative to control; format: functional; settings: ATCC 90028, 48 h, read-out: GI
# [5] = tested on: Candida albicans; experiment: Antifungal activity against Candida albicans ATCC 90028 assessed as planktonic growth inhibition at 0.65 uM after 48 hrs by M27-A3 protocol based method relative to control; format: functional; settings: ATCC 90028, 48 h, read-out: GI
# [6] = tested on: Candida albicans; experiment: Antifungal activity against Candida albicans ATCC 90028 assessed as planktonic growth inhibition at 5.18 uM after 48 hrs by M27-A3 protocol based method relative to control; format: functional; settings: ATCC 90028, 48 h, read-out: GI
# [7] = tested on: Candida albicans; experiment: Antifungal activity against Candida albicans ATCC 90028 assessed as planktonic growth inhibition at 0.16 uM after 48 hrs by M27-A3 protocol based method relative to control; format: functional; settings: ATCC 90028, 48 h, read-out: GI
# [8] = tested on: Candida albicans; experiment: Antifungal activity against Candida albicans ATCC 90028 assessed as planktonic growth inhibition at 20.73 uM after 48 hrs by M27-A3 protocol based method relative to control; format: functional; settings: ATCC 90028, 48 h, read-out: GI
# [9] = tested on: Candida albicans; experiment: Antifungal activity against Candida albicans ATCC 90028 assessed as planktonic growth inhibition at 10.37 uM after 48 hrs by M27-A3 protocol based method relative to control; format: functional; settings: ATCC 90028, 48 h, read-out: GI
# [10] = tested on: Candida albicans; experiment: Antifungal activity against Candida albicans ATCC 90028 assessed as planktonic growth inhibition at 41.47 uM after 48 hrs by M27-A3 protocol based method relative to control; format: functional; settings: ATCC 90028, 48 h, read-out: GI
# [11] = tested on: Candida albicans; experiment: Antifungal activity against Candida albicans ATCC 90028 assessed as planktonic growth inhibition at 2.59 uM after 48 hrs by M27-A3 protocol based method relative to control; format: functional; settings: ATCC 90028, 48 h, read-out: GI
# [12] = tested on: Candida albicans; experiment: Antifungal activity against Candida albicans ATCC 90028 assessed as reduction in cell growth after 48 to 72 hrs in presence of ergosterol by M27-A3 protocol based method; format: functional
# [13] = tested on: Candida albicans; experiment: Cell cycle arrest in Candida albicans ATCC 90028 assessed as accumulation at G0/G1-phase by propidium iodide staining based flow cytometry; format: functional, organism-based
# [14] = Toxicity in Galleria mellonella larvae assessed as survival rate at 41.47 uM measured after 120 hrs (reference value: 100%)
# [15] = Toxicity in Galleria mellonella larvae assessed as cocoon formation at 41.47 uM measured after 48 hrs (reference value: 85 +/- 5%)
# [16] = tested on: Candida albicans; experiment: Induction of Candida albicans ATCC 90028 internalization in mouse RAW264.7 cells assessed as reduction in fungus-induced cell damage by measuring live and early apoptotic cells at 41.47 uM after 2 hrs acridine orange/ethidium bromide staining based confocal scanning microscopic analysis; format: functional, organism-based
# [17] = tested on: Candida albicans; experiment: Induction of reactive oxygen species generation in Candida albicans ATCC 90028 assessed as ROS level at 41.47 uM after 18 hrs by DCFDA probe based flow cytometry (reference value: 0.3%); format: functional
# [18] = Toxicity in Galleria mellonella larvae assessed as movement melanization at 41.47 uM measured after 128 hrs (reference value: 0%)
# [19] = tested on: Candida albicans; experiment: Antifungal activity against Candida albicans ATCC 90028 assessed as reduction in cell growth after 48 to 72 hrs by M27-A3 protocol based method; format: functional
# [20] = tested on: Candida albicans; experiment: Inhibition of Candida albicans ATCC 90028 cell adhesion to human TR146 cells at reduction in cell adherence at 41.47 uM relative to control; format: functional; settings: ATCC 90028, TR146
# [21] = Toxicity in Galleria mellonella larvae assessed as movement melanization at 41.47 uM measured after 48 hrs (reference value: 0%)
# [22] = Toxicity in Galleria mellonella larvae assessed as cocoon formation at 41.47 uM measured after 48 hrs (reference value: 100 +/- 0%)
# [23] = tested on: Candida albicans; experiment: Antibiofilm activity against Candida albicans ATCC 90028 assessed as inhibition of biofilm formation after 24 hrs by XTT assay; format: functional, organism-based; settings: ATCC 90028, 24 h
# [24] = Toxicity in Galleria mellonella larvae assessed as cocoon formation at 41.47 uM measured after 18 hrs (reference value: 60 +/- 20%)
# [25] = Toxicity in Galleria mellonella larvae assessed as movement melanization at 41.47 uM measured after 18 hrs (reference value: 0%)
# [26] = Toxicity in Galleria mellonella larvae assessed as survival rate at 41.47 uM measured after 18 hrs (reference value: 100%)
# [27] = Selectivity index, ratio of CC50 for African green monkey Vero cells to IC50 for Candida albicans ATCC 90028; format: toxicity; settings: read-out: Ratio CC50/IC50
# [28] = Toxicity in Galleria mellonella larvae assessed as survival rate at 41.47 uM measured after 48 hrs (reference value: 100%)
# [29] = tested on: Candida albicans; experiment: Antifungal activity against Candida albicans ATCC 90028 assessed as planktonic growth inhibition at 5.53 uM after 48 hrs by M27-A3 protocol based method relative to control; format: functional; settings: ATCC 90028, 48 h, read-out: GI
# [30] = tested on: Candida albicans; experiment: Antifungal activity against Candida albicans ATCC 90028 assessed as planktonic growth inhibition at 22.13 uM after 48 hrs by M27-A3 protocol based method relative to control; format: functional; settings: ATCC 90028, 48 h, read-out: GI
# [31] = tested on: Candida albicans; experiment: Antifungal activity against Candida albicans ATCC 90028 assessed as planktonic growth inhibition at 1.38 uM after 48 hrs by M27-A3 protocol based method relative to control; format: functional; settings: ATCC 90028, 48 h, read-out: GI
# [32] = tested on: Candida albicans; experiment: Antifungal activity against Candida albicans ATCC 90028 assessed as planktonic growth inhibition at 11.07 uM after 48 hrs by M27-A3 protocol based method relative to control; format: functional; settings: ATCC 90028, 48 h, read-out: GI
# [33] = tested on: Candida albicans; experiment: Antifungal activity against Candida albicans ATCC 90028 assessed as planktonic growth inhibition at 0.17 uM after 48 hrs by M27-A3 protocol based method relative to control; format: functional; settings: ATCC 90028, 48 h, read-out: GI
# [34] = tested on: Candida albicans; experiment: Antifungal activity against Candida albicans ATCC 90028 assessed as planktonic growth inhibition at 2.77 uM after 48 hrs by M27-A3 protocol based method relative to control; format: functional; settings: ATCC 90028, 48 h, read-out: GI
# [35] = tested on: Candida albicans; experiment: Antifungal activity against Candida albicans ATCC 90028 assessed as planktonic growth inhibition at 44.26 uM after 48 hrs by M27-A3 protocol based method relative to control; format: functional; settings: ATCC 90028, 48 h, read-out: GI
# [36] = tested on: Candida albicans; experiment: Antifungal activity against Candida albicans ATCC 90028 assessed as planktonic growth inhibition at 0.09 uM after 48 hrs by M27-A3 protocol based method relative to control; format: functional; settings: ATCC 90028, 48 h, read-out: GI
# [37] = tested on: Candida albicans; experiment: Antifungal activity against Candida albicans ATCC 90028 assessed as planktonic growth inhibition at 0.35 uM after 48 hrs by M27-A3 protocol based method relative to control; format: functional; settings: ATCC 90028, 48 h, read-out: GI
# [38] = tested on: Candida albicans; experiment: Antifungal activity against Candida albicans ATCC 90028 assessed as planktonic growth inhibition at 0.69 uM after 48 hrs by M27-A3 protocol based method relative to control; format: functional; settings: ATCC 90028, 48 h, read-out: GI
# [39] = tested on: Candida albicans; experiment: Antibiofilm activity against Candida albicans ATCC 90028 assessed as inhibition of biofilm formation […] after 24 hrs by XTT assay relative to control; format: functional, organism-based; settings: ATCC 90028, 24 h
# [40] = tested on: Candida albicans; experiment: Antifungal activity against Candida albicans ATCC 90028 assessed as planktonic growth inhibition at 0.27 uM after 48 hrs by M27-A3 protocol based method relative to control; format: functional; settings: ATCC 90028, 48 h, read-out: GI
smiles,measurement,setting,value
Fc1ccc(C2CCCN2CCCn2nnc(-c3ccccc3Cl)n2)cc1 (configuration not stated),log(activity),[1],-0.4
same,inhibition of growth at 0.32 µM,[2],98.9%
same,inhibition of growth at 1.3 µM,[3],99.2%
same,inhibition of growth at 0.08 µM,[4],98.6%
same,inhibition of growth at 0.65 µM,[5],99%
same,inhibition of growth at 5.18 µM,[6],99.3%
same,inhibition of growth at 0.16 µM,[7],98.7%
same,inhibition of growth at 20.73 µM,[8],99.5%
same,inhibition of growth at 10.37 µM,[9],99.4%
same,inhibition of growth at 41.47 µM,[10],99.6%
same,inhibition of growth at 2.59 µM,[11],99.3%
Fc1ccc(C2CCCN2CCCn2nnc(-c3ccc(Cl)cc3)n2)cc1 (configuration not stated),log(activity),[1],-0.2
same,inhibition of growth at 0.32 µM,[2],99.4%
same,MIC,[12],20.7 µM
same,Activity,[13],Active
same,inhibition of growth at 1.3 µM,[3],99.2%
same,"survival at 120 h, 41.47 µM",[14],83%
same,Activity,[15],80%
same,Activity,[16],Active
same,Activity,[17],12 - 16%
same,Activity,[18],13%
same,MIC,[19],10.4 µM
same,inhibition of growth at 0.08 µM,[4],99.4%
same,inhibition of growth at 0.65 µM,[5],99.4%
same,inhibition at 41.47 µM,[20],> 95%
same,inhibition of growth at 5.18 µM,[6],99.4%
same,Activity,[21],0%
same,Activity,[22],80%
same,inhibition of growth at 0.16 µM,[7],99.4%
same,inhibition of growth at 20.73 µM,[8],98.9%
same,inhibition of growth at 10.37 µM,[9],99.1%
same,inhibition of growth at 41.47 µM,[10],99%
same,IC50,[23],10.4 µM
same,Activity,[24],60%
same,Activity,[25],0%
same,"survival at 18 h, 41.47 µM",[26],100%
same,selectivity ratio,[27],2
same,"survival at 48 h, 41.47 µM",[28],100%
same,inhibition of growth at 2.59 µM,[11],99.5%
Cc1ccc(-c2nnn(CCCN3CCCC3c3cccc(C)c3)n2)cc1 (configuration not stated),log(activity),[1],-0.4
same,inhibition of growth at 5.53 µM,[29],99.1%
same,inhibition of growth at 22.13 µM,[30],98.7%
same,inhibition of growth at 1.38 µM,[31],98.9%
same,inhibition of growth at 11.07 µM,[32],98.8%
same,inhibition of growth at 0.17 µM,[33],98.9%
same,inhibition of growth at 2.77 µM,[34],99.3%
same,inhibition of growth at 44.26 µM,[35],99%
same,inhibition of growth at 0.09 µM,[36],98.9%
same,inhibition of growth at 0.35 µM,[37],99%
same,inhibition of growth at 0.69 µM,[38],98.9%
C[C@@H]1[C@H](O)[C@@H](C)/C=C/C=C/C=C/C=C/C=C/C=C/C=C/[C@H](O[C@@H]2O[C@H](C)[C@@H](O)[C@H](N)[C@@H]2O)C[C@@H]2O[C@](O)(C[C@@H](O)C[C@@H](O)[C@H](O)CC[C@@H](O)C[C@@H](O)CC(=O)O[C@H]1C)C[C@H](O)[C@H]2C(=O)O [AMPHOTERICIN B],IC50,[39],100 µM
same,inhibition of growth at 0.27 µM,[40],100%
